Measurements as given in US9107954B2, “Bivalent ligands for the treatment of neurological disorders” (Virginia Commonwealth University, priority 2012, dated 2015).

Columns and labels:
IL-6 = test: Cytokine release ELISA, HIV-1 infected astroglia supernatant: IL-6; type: cell-based, human; conditions: 18-20 h; bivalent ligand ± morphine
Protocol: (§1) The protein levels of the cytokines TNF-α, IL-6, IL-1β and the chemokine RANTES were measured by ELISA (Quantikine kits; R&D Systems Minneapolis, Minn.).
(§2) After 18-20 h exposure, supernatant was removed and analyzed by ELISA to quantitatively analyze the release of the cytokines TNF-α, IL-1β and IL-6 and the chemokine RANTES.

CCR5 [1] = target: CCR5 (Macaca mulatta (Rhesus macaque), UniProt P61813); test: CCR5 competitive radioligand binding, [125I]MIP-1α, Chem-1 cell membrane preparations; conditions: mean of three experiments, read-out: Radioligand binding Ki ± SEM
Protocol: Afterwards, the pharmacological profile of bivalent ligand 1 at the chemokine receptor CCR5 was characterized similarly. The competitive radioligand binding assay was conducted in CCR5 rhesus macaque membrane preparations from Chem-1 cells.

CCR5 [2] = target: T1, CCR5 (Homo sapiens (Human), UniProt P51681); test: Calcium mobilization assay in MOLT-4/CCR5 cells, RANTES-stimulated (Example 1); type: cell-based; conditions: CCR5/MOLT-4 cells
T1 sequence (P51681 whole entry): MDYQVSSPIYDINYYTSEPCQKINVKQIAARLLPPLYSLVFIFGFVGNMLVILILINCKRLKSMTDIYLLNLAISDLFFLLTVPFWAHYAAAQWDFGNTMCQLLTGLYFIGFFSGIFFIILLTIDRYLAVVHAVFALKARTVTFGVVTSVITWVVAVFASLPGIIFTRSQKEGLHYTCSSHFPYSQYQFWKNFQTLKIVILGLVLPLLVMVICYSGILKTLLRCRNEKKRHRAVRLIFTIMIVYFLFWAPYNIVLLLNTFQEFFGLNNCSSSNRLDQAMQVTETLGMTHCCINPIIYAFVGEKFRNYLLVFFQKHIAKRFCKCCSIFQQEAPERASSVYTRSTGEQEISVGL
Protocol: The ligands were first tested with various doses (in the range of 0.1 nM to 1 μM) for possible agonist activity. The protocol was the same for the following antagonism study, except no CCL5 (RANTES) was added. MOLT-4/CCR5 cells were plated in black 96-well plates with transparent bottom (Greinier Bio-one) at 100,000 cells per well in 50:1 HBSS:HEPES assay buffer. They were incubated for 1 hour at 37° C. and 5% CO2 with control buffer or varying concentration of ligand for a total volume of 130 μL per well. Cells were then incubated with 50 μL of Fluo-4-AM loading buffer (40 μL 2 μM Fluo-4 dye, 100 μL 2.5 mM probenacid, in 5 mL assay buffer) for an additional hour. Then 20μL 200 nM RANTES solution in assay buffer or assay buffer alone were added to the wells right before changes in Ca^2+ concentration were monitored by RFU for 90 seconds using a microplate reader (FlexStation3, Molecular Devices). Peak values were obtained using SoftMaxPro software (Molecular Devices) and non-linear regression curves were generated using Prism (GraphPad) to calculate IC50 values.

MOR [3] = target: T2, MOR (Homo sapiens (Human), UniProt P35372); test: Calcium mobilization assay, CCR5-MOR CHO co-expressed cell line (Gqi5), DAMGO-stimulated; type: cell-based
Protocol: (§3) Having a cell line that consistently expresses both CCR5 and MOR was essential for studying how the two receptors interact with each other using calcium mobilization assays and cell fusion assays. A previously established MOR Chinese hamster ovarian (CHO) cell line was transfected with a plasmid containing CCR5 tagged with a yellow fluorescent protein on its N-terminus (CCR5-YFP). ^1 After 48 hours cells were sorted based upon the presence of the yellow fluorescent protein tag using a flow cytometer. Cells containing the tagged receptors were then cultured and used in the subsequent assays.
(§4) Calcium mobilization is directly related to G protein-coupled receptor (GPCR) activation and therefore is a useful technique to study the functional activity of new ligands.

CCR5 [4] = target: T1, CCR5; test: RANTES-stimulated Ca2+ flux assay in Gqi5 transfected CCR5-MOLT-4 cells (Example 4); type: cell-based
CCR5 [5] = target: T1, CCR5; test: Calcium mobilization assay, CCR5-MOR CHO co-expressed cell line (Gqi5), RANTES-stimulated; type: cell-based; conditions: cells stimulated with RANTES
Protocol: as §3, §4

[6] = system: fusion of CCR5-MOR CHO target cells (CD4) with HEK effector cells (HIV-1 gp140); type: cell-based
human astrocytes = test: Cytotoxicity assay, AOPI live/dead labeling of human astrocytes; type: cell-based
Protocol: Cell viability was assessed by measurement of both live and dead cells using dual (green/red) fluorescence labeling with AOPI analyzed with Cellometer Vision CBA (Nexcelom Bioscience LLC).
To determine whether HIV-1±morphine exposure affected astrocyte viability in the presence or absence of MVC or the bivalent compound, a cell death assay was performed at 24 h after treatment.

MOR [7] = target: T2, MOR; test: DAMGO-stimulated Ca2+ flux assay in hMOR-CHO cells transfected with Gqi5; type: cell-based
mu opioid receptor = mu opioid receptor (Homo sapiens (Human), UniProt P35372); test: biochemical; conditions: read-out: Emax, 35S-GTP[γS] binding
Protocol: (§5) MOR/CHO cell culture and membrane homogenate preparation followed literature report^52.
(§6) For competition binding assay (agonists or antagonists), Hill plots linear regression analysis and the Cheng-Prusoff equation were applied to determine the IC50 and Ki values. In [^35S]GTPγS binding assays, agonist concentration effect curves were fit by non-linear regression to obtain Emax and EC50 values; antagonist inhibition of agonist-stimulated [^35S]GTPγS binding was analyzed by Hill analysis and AD50 values were corrected to Ki values using the Cheng-Prusoff equation. All analyses were using Prism 4.0.

mu opioid receptor (MOR) = mu opioid receptor (MOR) (Homo sapiens (Human), UniProt P35372); test: MOR competitive radioligand binding, [3H]naloxone, hMOR-expressed CHO cells; conditions: Example 1, read-out: binding affinity to the mu opioid receptor, Ki
Protocol: as §5
Saturation binding was performed by incubating membranes for 90 minutes at 30° C. with 0.5-15 nM [^3H]naloxone in assay buffer in a 0.5 mL volume. […] The reaction was terminated by rapid filtration through Whatman GF/B glass fiber filters, followed by 3 washes with 3 mL ice-cold Tris buffer. Bound radioactivity will be determined by liquid scintillation spectrophotometry at 45% efficiency for [^3H].
as §6
Herein is reported the characterization of this novel molecular probe in for its binding affinity, Ca^2+ flux functional activity, and HIV-1 inhibition potency.

HIV-1 in microglia = test: HIV-1 entry in microglia (data not shown); type: cell-based; conditions: at the concentrations used (100 nM)
RANTES = test: Chemokine release ELISA, HIV-1 infected astroglia supernatant: RANTES; type: cell-based, human; conditions: 18-20 h; bivalent ligand ± morphine
Protocol: as §1, §2

## Cc1nnc(C(C)C)n1C1CC2CCC(C1)N2CC[C@H](NC(=O)C1CCC(F)(F)CC1)c1ccc(NC(=O)COCC(=O)NCCCCCCCNC(=O)COCC(=O)N[C@@H]2CC[C@@]3(O)[C@H]4Cc5ccc(O)c6c5[C@@]3(CCN4CC3CC3)[C@H]2O6)cc1 (some centres unmarked) [bivalent ligand 1]
IL-6
  fold decrease in IL-6 release compared to R5 HIV-1 alone: 1.6 fold
CCR5 [1]
  Ki: 239 ± 56 nM
CCR5 [2]; RANTES, read-out: calcium flux inhibition IC50
  IC50: 231 ± 88 nM
CCR5 [2]; no RANTES added
  agonism in calcium mobilization assay: no agonism
MOR [3]
  IC50: 30 ± 2.44 nM
CCR5 [4]
  fold less potent than maraviroc in RANTES induced Ca2+ flux inhibition: approximately 60 fold
CCR5 [4]; RANTES stimulated, read-out: Ca2+ inhibition IC50 ± SEM
  IC50: 126 ± 28 nM
CCR5 [4]; data not shown
  CCR5 agonism: no CCR5 agonism
CCR5 [5]
  IC50: 6240 ± 251 nM
[6]; 1 at 3000 nM, 2 at 10000 nM, maraviroc at 100 nM
  effect on cell fusion: significantly lowered cell fusion
[6]; morphine 300 nM
  amplification of cell fusion inhibition when morphine present: 2 fold
Human astrocytes; 100 nM, HIV-1 ± morphine, 24 h
  astrocyte viability: did not significantly affect the survival
Human astrocytes; Example 3
  toxicity in the astrocytes, cytotoxicity assays (not shown): neither maraviroc nor 1 had any toxicity
MOR [7]
  fold reduction of potency to antagonize DAMGO-induced Ca2+ flux compared to naltrexone: less than 5 fold
MOR [7]; DAMGO stimulated, hMOR-CHO Gqi5, read-out: Ca2+ inhibition IC50 ± SEM
  IC50: 40 ± 4.8 nM
MOR [7]; hMOR-CHO Gqi5, data not shown
  agonism in Ca2+ mobilization assay: No agonism
Mu opioid receptor
  Emax: 11.7 ± 1.2%
Mu opioid receptor (MOR)
  Ki: 51.8 ± 7.9 nM
HIV-1 in microglia
  antiviral effect in microglia: only detected in astrocytes and not in microglia
RANTES
  fold decrease in RANTES release compared to R5 HIV-1 alone: 1.5 fold
